Measured values published in ChEMBL document CHEMBL1145726, “Structure-based design of agents targeting the bacterial ribosome” (Bioorg Med Chem Lett, 2003).
Converted amounts (≈) assume the structure as drawn.

Legend:
Type in all cases: functional
Escherichia coli [1] = assay: In vitro antibacterial activity was determined
[2] = Inhibition of L11BD (L11 binding domain) 58-mer methylation of A1067 at 50 uM
Escherichia coli [3] = assay: In vitro inhibition of protein translation in Escherichia coli
Nucleic Acid = assay: % Inhibition of rRNA methylation at 50 uM
Escherichia coli [4] = assay: Inhibitory concentration of compound against Escherichia coli in vitro protein translation

SMILES | MIC95 (Escherichia coli [1]) | inhibition [2] | Inhibition (Escherichia coli [3]) | inhibition (Nucleic Acid) | IC50 (Escherichia coli [4])
C[C@H](O)[C@H](NC(=O)c1csc(-c2ccccc2)n1)c1nc(C(=O)N2CCN(CCOCCO)CC2)cs1 | > 200 µg/mL | 59% | – | – | –
CC[C@@H](NC(=O)[C@@H](NC(=O)c1csc(-c2ccccc2)n1)[C@@H](C)O)c1nc(C(=O)NCc2ccc3c(c2)OCO3)cs1 | > 200 µg/mL | 28% | 31% | 13% | –
C=C(NC(=O)C(=C)NC(=O)c1csc(C2=N[C@@H]3c4csc(n4)[C@H]4NC(=O)c5csc(n5)[C@H]([C@](C)(O)[C@@H](C)O)NC(=O)[C@H]5CSC(=N5)/C(=C/C)NC(=O)[C@H]([C@@H](C)O)NC(=O)c5csc(n5)[C@]3(CC2)NC(=O)[C@H](C)NC(=O)C(=C)NC(=O)[C@H](C)NC(=O)[C@H]([C@@H](C)CC)N[C@@H]2C=Cc3c([C@H](C)O)cc(nc3[C@H]2O)C(=O)O[C@@H]4C)n1)C(N)=O [THIOSTREPTON] | 0.015 µg/mL (≈ 0.00901 µM) | – | 98% | – | 100 nM
C[C@H](O)[C@@H](NC(=O)[C@@H](NC(=O)c1csc(-c2ccccc2)n1)[C@@H](C)O)c1nc(C(=O)O)cs1 | > 200 µg/mL | 35% | – | 27% | –
CC(C)[C@@H](NC(=O)[C@@H](NC(=O)c1csc(-c2ccccc2)n1)[C@@H](C)O)c1nc(C(=O)NCCCO)cs1 | > 200 µg/mL | 37% | 48% | 37% | –
CC(C)[C@@H](NC(=O)[C@@H](NC(=O)c1csc(-c2ccccc2)n1)[C@@H](C)O)c1nc(C(=O)NCc2ccc3c(c2)OCO3)cs1 | > 200 µg/mL | 24% | 16% | 20% | –
